Experimental data from paper PMC9143943, “Novel Tyrosine Kinase Inhibitors to Target Chronic Myeloid Leukemia” (Molecules, 2022).
Entries after “also recorded” stand apart in the source; their conditions may differ. Read-outs that look alike come from different tables or passages of the source.

Key:
BCR-ABL kinase = BCR-ABL kinase (Homo sapiens, UniProt P00519); assay: FRET-based Z'-Lyte kinase assay
Procedure: Novel compounds were tested to investigate their ability to inhibit both BCR-ABL TK and HO-1.

HO-1 = biological target: T1, HO-1 (Rattus norvegicus, UniProt P06762); assay: HO-1 enzymatic activity in microsomal fraction of rat spleen (bilirubin formation); format: biochemical
T1 construct: This microsomal preparation represents the most native (i.e., closest to in vivo) form of HO-1; from tissue; host or cells: rat spleen microsomes (male Sprague-Dawley rats)
T1 sequence (P06762 1-289): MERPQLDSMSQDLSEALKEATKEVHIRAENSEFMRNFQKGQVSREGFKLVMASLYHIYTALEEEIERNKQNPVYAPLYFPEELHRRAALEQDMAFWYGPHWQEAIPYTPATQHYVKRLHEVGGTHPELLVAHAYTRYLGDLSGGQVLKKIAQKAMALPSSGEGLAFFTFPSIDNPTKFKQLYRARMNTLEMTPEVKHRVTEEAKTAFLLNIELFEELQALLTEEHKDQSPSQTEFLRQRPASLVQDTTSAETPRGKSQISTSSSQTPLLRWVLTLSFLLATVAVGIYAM
Procedure: HO-1 activity was measured in microsomal fractions of rat spleen obtained as described in the experimental section. The activity was determined by measuring the bilirubin formation using the difference in absorbance at 464–530 nm. HO-1 inhibitors LS/0 and LS1/71 were used as reference compounds. […] Nevertheless, some observed differences in the results among the tested compounds allow us to discuss SAR as follows. HO-1 inhibitory activity mainly depends on the position of the oxybutylimidazole moiety and only to a lesser extent on the R substituent on the benzamide ring.
Since HO-1 protein is abundant in the rat spleen as well documented, rat spleen microsomal fraction prepared by differential centrifugation was used as source of the HO-1 protein. This microsomal preparation represents the most native (i.e., closest to in vivo) form of HO-1. Spleen microsomal fractions were obtained according to Ryter et al.. The experiments reported in the present paper complied with current Italian law and met the guidelines of the Institutional Animal Care and Use Committee of Ministry of Health (Directorate General for Animal Health and Veterinary Medicines, Italy) “Dosing of enzymatic activities in rat microsomes” (2018–2022), project code 02769.N.VLY. Male Sprague–Dawley albino rats (150 g body weight and age 45 d) used in our experimental conditions to obtain spleen microsomal fraction had free access to water and were kept at room temperature with a natural photo-period (12 h light–12 h dark cycle). To obtain a homogenate (15%, w/v) of spleens, each rat was sacrificed, and its spleen was excised and weighed. Spleens pooled from five rats were homogenized in 50 mM Tris buffer, pH 7.4, containing 0.25 M sucrose, using a Potter–Elvehjem homogenizing system with a Teflon pestle. The microsomal fraction of rat spleen homogenate was obtained by differential centrifugation: first centrifugation at 10,000× g for 20 min at 4 °C and a second centrifugation of the supernatant at 100,000× g for 60 min at 4 °C. The 100,000× g pellet (microsomes) was resuspended in 100 mM potassium phosphate buffer, pH 7.8, containing 2 mM MgCl2. The rat spleen fraction was divided into aliquots and stored at −80 °C for up to 2 months, and then its protein concentration was measured.
Biliverdin reductase was obtained by using rat liver cytosol. Three volumes of a solution 1.15% KCl w/v and Tris buffer 20 mM, pH 7.8, were used to homogenize on ice liver tissue. The 10,000× g supernatant was obtained by differential centrifugation: first centrifugation at 10,000× g for 20 min at 4 °C and a second centrifugation at […] at 4 °C to sediment the microsomes. The 10,000× g supernatant was stored in small amounts at −80 °C, and then its protein concentration was measured.
The HO-1 activity was determined by measuring the bilirubin formation using the difference in absorbance at 464–530 nm, as described by Ryter et al.. A final volume of 500 μL of incubation mixtures contained 20 mM Tris–HCl, pH 7.4, (1 mg/mL) microsomal extract, 0.5–2 mg/mL biliverdin reductase, 1 mM NADPH, 2 mM glucose 6-phosphate (G6P), 1 U G6P dehydrogenase, 25 μM hemin, and 10 μL of DMSO (or the same volume of DMSO solution of test compounds to a final concentration of 100, 10, and 1 μM). Enzymatic reactions were carried out in the dark for 60 min at 37 °C in a circulating water bath. The reactions were stopped by the addition of 500 μL of chloroform. After recovering the chloroform phase, the amount of bilirubin formed was measured with a double-beam spectrophotometer as OD464–530 nm (extinction coefficient, 40 mM/cm^−1 for bilirubin). The enzymatic activity was defined as Units (one Unit is the amount of enzyme catalyzing the formation of 1 nmol of bilirubin/mg protein/h).

K562-S cells = assay: In vitro cytotoxicity, NIL-sensitive K562 cells (trypan blue / XTT); format: cell-based; details: 0.5 and 5 μM, 48 h
Procedure: K562 cells (CCL-243 ATCC) were cultured in RPMI 1640 (L0500, Biowest, Riverside, MO, USA) supplemented with 10% Fetal Bovine Serum (FBS) and 1% penicillin–streptomycin and incubated at 37 °C in 5% CO2. K562 cells were seeded at a concentration of 1 × 10^5 cells/mL of culture medium. […] Briefly, cells were harvested by centrifugation and resuspended in 5 mL of fresh medium; then an aliquot of 10 μL was taken and mixed with Trypan Blue (93595, Sigma-Aldrich, Milan, Italy) stain (1:1). The mixture was applied on a counting chamber, and cells were counted on a binocular microscope. […] Once resistance was established (after approximately 9 months), K562-R and K562-S were treated with compounds at different concentrations.
Treatments were maintained for 48 h, and then cell viability was assessed: (a) with 0.2% (final concentration) trypan blue dye exclusion analysis which is used to determine the number of viable cells present in a cell suspension and (b) with XTT assay.
• (a) Briefly, the cell number was determined by counting the viable cells in a Burker counting chamber divided into 16 fields of 1 mm^2. […]

[1] = experimental HO-1 IC50 repeated in Table 3, read-out: IC50
[2] = rat spleen microsomal fraction, read-out: HO-1 IC50 (μM) ± SD

Chain of BCR-ABL kinase (P00519 whole entry): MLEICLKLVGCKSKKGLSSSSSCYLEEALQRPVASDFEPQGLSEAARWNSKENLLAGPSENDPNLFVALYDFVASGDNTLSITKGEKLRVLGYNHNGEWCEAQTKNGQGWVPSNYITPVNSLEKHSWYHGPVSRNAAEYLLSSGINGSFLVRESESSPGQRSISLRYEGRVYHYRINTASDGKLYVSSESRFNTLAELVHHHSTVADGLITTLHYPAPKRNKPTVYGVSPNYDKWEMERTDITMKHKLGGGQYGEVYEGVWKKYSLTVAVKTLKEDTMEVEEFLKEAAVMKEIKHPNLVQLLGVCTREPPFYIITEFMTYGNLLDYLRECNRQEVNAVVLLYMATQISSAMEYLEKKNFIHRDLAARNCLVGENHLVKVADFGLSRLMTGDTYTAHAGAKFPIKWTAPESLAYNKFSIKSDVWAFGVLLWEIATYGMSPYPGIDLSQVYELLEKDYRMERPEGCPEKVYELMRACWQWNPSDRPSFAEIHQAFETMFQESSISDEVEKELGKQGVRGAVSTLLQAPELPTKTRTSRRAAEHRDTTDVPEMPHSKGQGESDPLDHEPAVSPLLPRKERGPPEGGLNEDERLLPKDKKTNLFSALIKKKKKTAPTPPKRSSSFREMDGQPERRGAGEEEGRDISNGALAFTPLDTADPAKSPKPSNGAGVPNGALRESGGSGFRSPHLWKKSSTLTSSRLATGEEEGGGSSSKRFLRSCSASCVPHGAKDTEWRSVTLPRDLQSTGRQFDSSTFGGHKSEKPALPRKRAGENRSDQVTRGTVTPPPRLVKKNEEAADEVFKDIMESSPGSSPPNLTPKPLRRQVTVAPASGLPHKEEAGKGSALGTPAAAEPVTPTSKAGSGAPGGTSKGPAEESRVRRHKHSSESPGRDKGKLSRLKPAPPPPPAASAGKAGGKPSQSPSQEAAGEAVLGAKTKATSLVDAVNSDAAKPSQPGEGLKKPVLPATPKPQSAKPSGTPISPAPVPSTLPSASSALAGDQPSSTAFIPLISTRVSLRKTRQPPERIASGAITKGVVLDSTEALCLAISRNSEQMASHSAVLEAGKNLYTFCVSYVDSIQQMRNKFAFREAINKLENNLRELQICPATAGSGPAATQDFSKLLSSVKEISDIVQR

Row | SMILES | IC50 (BCR-ABL kinase) [µM] | IC50 (HO-1; [1]) [µM] | IC50 (HO-1; [2]) [µM] | melting point [°C] | K562-S cell viability (K562-S cells) | IC50 (HO-1; rat spleen microsomal fraction, read-out: HO-1 IC50) [µM]
1 | Cc1ccc(C(=O)Nc2ccc(OCCCCn3ccnc3)cc2)cc1Nc1nccc(-c2cccnc2)n1 [Compound 1a, N-(4-(4-(1H-imidazol-1-yl)butoxy)phenyl)-4-methyl-3-((4-(pyridin-3-yl)pyrimidin-2-yl)amino)benzamide] | 0.109 ± 0.0016 | 44.8 | 44.8 ± 2.58 | 140 to 142 |  | 
2 | Cc1ccc(C(=O)Nc2cccc(OCCCCn3ccnc3)c2)cc1Nc1nccc(-c2cccnc2)n1 [Compound 1b, N-(3-(4-(1H-imidazol-1-yl)butoxy)phenyl)-4-methyl-3-((4-(pyridin-3-yl)pyrimidin-2-yl)amino)benzamide] | 4.19 ± 0.16 | 64.6 | 64.6 ± 0.69 | 118 to 120 |  | 
3 | Cc1ccc(C(=O)Nc2ccccc2OCCCCn2ccnc2)cc1Nc1nccc(-c2cccnc2)n1 [Compound 1c, N-(2-(4-(1H-imidazol-1-yl)butoxy)phenyl)-4-methyl-3-((4-(pyridin-3-yl)pyrimidin-2-yl)amino)benzamide] | 14.6 ± 0.283 | 149 | 149 ± 8.1 |  |  | 
4 | Cc1ccc(C(=O)Nc2cc(OCCCCn3ccnc3)ccc2Br)cc1Nc1nccc(-c2cccnc2)n1 [Compound 1d, N-(5-(4-(1H-imidazol-1-yl)butoxy)-2-bromophenyl)-4-methyl-3-((4-(pyridin-3-yl)pyrimidin-2-yl)amino)benzamide] | 16.2 ± 0.208 | 116 | 116 ± 5.24 | 69.8 to 72 |  | 
5 | Cc1ccc(C(=O)Nc2ccc(OCCCCn3ccnc3)c(Br)c2)cc1Nc1nccc(-c2cccnc2)n1 [Compound 1e, N-(4-(4-(1H-imidazol-1-yl)butoxy)-3-bromophenyl)-4-methyl-3-((4-(pyridin-3-yl)pyrimidin-2-yl)amino)benzamide] | 0.037 ± 0.0012 | 55.1 | 55.1 ± 0.71 |  |  | 
6 | Cc1ccc(C(=O)Nc2ccc(Br)c(OCCCCn3ccnc3)c2)cc1Nc1nccc(-c2cccnc2)n1 [Compound 1f, N-(3-(4-(1H-imidazol-1-yl)butoxy)-4-bromophenyl)-4-methyl-3-((4-(pyridin-3-yl)pyrimidin-2-yl)amino)benzamide] | 5.21 ± 0.224 | 100 | 100 ± 3.29 |  |  | 
7 | Cc1ccc(C(=O)Nc2cc(Br)cc(OCCCCn3ccnc3)c2)cc1Nc1nccc(-c2cccnc2)n1 [Compound 1g, N-(3-(4-(1H-imidazol-1-yl)butoxy)-5-bromophenyl)-4-methyl-3-((4-(pyridin-3-yl)pyrimidin-2-yl)amino)benzamide] | 0.077 ± 0.0036 | 51 | 51 ± 0.99 | 162 to 164.4 | significant reduction; also recorded: cytotoxic properties similar to NIL and IM | 
8 | Cc1ccc(C(=O)Nc2cc(OCCCCn3ccnc3)cc(C(F)(F)F)c2)cc1Nc1nccc(-c2cccnc2)n1 [Compound 1h, N-(3-(4-(1H-imidazol-1-yl)butoxy)-5-(trifluoromethyl)phenyl)-4-methyl-3-((4-(pyridin-3-yl)pyrimidin-2-yl)amino)benzamide] | 0.77 ± 0.042 | 65.4 | 65.4 ± 1.39 | 180.3 to 182.5 | significant reduction; also recorded: cytotoxic properties similar to NIL and IM | 
9 | Cc1ccc(C(=O)Nc2ccc(Br)cc2OCCCCn2ccnc2)cc1Nc1nccc(-c2cccnc2)n1 [Compound 1i, N-(2-(4-(1H-imidazol-1-yl)butoxy)-4-bromophenyl)-4-methyl-3-((4-(pyridin-3-yl)pyrimidin-2-yl)amino)benzamide] | 13.7 ± 0.139 | 83.4 | 83.4 ± 2.3 | 94 to 96 |  | 
10 | Cc1ccc(OCCCCn2ccnc2)c(NC(=O)c2ccc(C)c(Nc3nccc(-c4cccnc4)n3)c2)c1 [Compound 1j, N-(2-(4-(1H-imidazol-1-yl)butoxy)-5-methylphenyl)-4-methyl-3-((4-(pyridin-3-yl)pyrimidin-2-yl)amino)benzamide] | 5.45 ± 0.223 | 3060 | 3060 ± 201 |  |  | ~3000
